Laboratory results published in ChEMBL document CHEMBL1921674, “Novel tricyclic inhibitors of IKK2: discovery and SAR leading to the identification of 2-methoxy-N-((6-(1-methyl-4-(methylamino)-1,6-dihydroimidazo[4,5-d]pyrrolo[2,3-b]pyridin-7-yl)pyridin-2-yl)methyl)acetamide (BMS-066)” (Bioorg Med Chem Lett, 2011).
Active and inactive are the calls of the source. No cut-off for these calls is given here.

Assays:
[1] = Oral bioavailability in mouse at 3 mg/kg; format: ADME, organism-based; details: in vivo
[2] = molecular target: Inhibitor of nuclear factor kappa-B kinase subunit alpha (Homo sapiens, UniProt O15111); test: Inhibition of IKK1
[3] = molecular target: Cytochrome P450 2C19 (Homo sapiens, UniProt P33261); test: Inhibition of CYP2C19; format: ADME
Sequence of Cytochrome P450 2C19 (P33261 whole entry): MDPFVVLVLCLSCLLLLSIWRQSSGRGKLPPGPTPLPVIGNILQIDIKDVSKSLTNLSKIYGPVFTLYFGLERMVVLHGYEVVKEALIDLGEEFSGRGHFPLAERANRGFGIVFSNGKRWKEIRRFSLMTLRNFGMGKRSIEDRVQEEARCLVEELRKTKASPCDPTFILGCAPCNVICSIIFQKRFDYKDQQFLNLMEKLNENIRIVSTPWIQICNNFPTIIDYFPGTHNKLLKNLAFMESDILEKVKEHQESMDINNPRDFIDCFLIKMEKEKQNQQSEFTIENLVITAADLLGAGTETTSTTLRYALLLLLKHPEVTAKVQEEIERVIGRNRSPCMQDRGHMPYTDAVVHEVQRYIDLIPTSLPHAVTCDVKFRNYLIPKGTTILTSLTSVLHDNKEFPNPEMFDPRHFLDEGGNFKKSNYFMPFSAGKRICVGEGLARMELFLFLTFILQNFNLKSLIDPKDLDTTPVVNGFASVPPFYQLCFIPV

[4] = Half life in Lewis rat at 2 mg/kg, iv; format: ADME, organism-based; design: dose 2 mg/kg, route intravenous; details: in vivo
[5] = molecular target: T1, Protein-tyrosine kinase 6 (Homo sapiens, UniProt Q13882); test: Inhibition of BRK at 10 uM
Target sequence in this assay (Q13882 whole entry, looked up): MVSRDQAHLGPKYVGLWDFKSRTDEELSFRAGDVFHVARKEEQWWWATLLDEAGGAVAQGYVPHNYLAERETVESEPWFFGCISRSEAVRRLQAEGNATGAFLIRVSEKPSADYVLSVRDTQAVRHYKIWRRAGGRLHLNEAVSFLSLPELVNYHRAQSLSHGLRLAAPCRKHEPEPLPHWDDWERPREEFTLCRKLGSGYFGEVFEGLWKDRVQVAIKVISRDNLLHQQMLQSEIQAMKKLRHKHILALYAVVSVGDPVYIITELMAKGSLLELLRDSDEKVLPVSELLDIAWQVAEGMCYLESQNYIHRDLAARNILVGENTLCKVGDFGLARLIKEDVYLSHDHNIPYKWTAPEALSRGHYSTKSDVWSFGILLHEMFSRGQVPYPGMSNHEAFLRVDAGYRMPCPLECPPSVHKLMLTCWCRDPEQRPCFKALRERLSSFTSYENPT

[6] = AUC in SJL mouse intestine at 8 mg/kg, iv after 8 hrs; format: ADME, organism-based; design: time < 8 hr, dose 8 mg/kg, route intravenous
[7] = system: Mus musculus; test: Reduction in TNBS-induced colitis in mouse […] model assessed as decrease of body weight loss at 10 mg/kg, administered intrarectally 1 day before TNBS challenge twice daily for 4 days; format: functional, organism-based; design: dose 10 mg/kg
[8] = AUC in Sprague-Dawley rat intestine at 2 mg/kg, iv after 8 hrs; format: ADME, organism-based; design: time < 8 hr, dose 2 mg/kg, route intravenous
[9] = molecular target: Inhibitor of nuclear factor kappa-B kinase subunit alpha (Homo sapiens) (UniProt O15111); test: Inhibition of IKK1 at 10 uM
[10] = Volume of distribution at steady state in Lewis rat at 2 mg/kg, iv; format: ADME, organism-based; design: dose 2 mg/kg, route intravenous; details: in vivo, read-out: Vdss
[11] = Oral bioavailability in dog at 5 mg/kg; format: ADME, organism-based, Canis lupus familiaris; details: in vivo
[12] = Half life in mouse at 2 mg/kg, iv; format: ADME, organism-based; design: dose 2 mg/kg, route intravenous; details: in vivo
[13] = molecular target: Cytochrome P450 2D6 (Homo sapiens, UniProt P10635); test: Inhibition of CYP2D6; format: ADME
Sequence of Cytochrome P450 2D6 (P10635 whole entry): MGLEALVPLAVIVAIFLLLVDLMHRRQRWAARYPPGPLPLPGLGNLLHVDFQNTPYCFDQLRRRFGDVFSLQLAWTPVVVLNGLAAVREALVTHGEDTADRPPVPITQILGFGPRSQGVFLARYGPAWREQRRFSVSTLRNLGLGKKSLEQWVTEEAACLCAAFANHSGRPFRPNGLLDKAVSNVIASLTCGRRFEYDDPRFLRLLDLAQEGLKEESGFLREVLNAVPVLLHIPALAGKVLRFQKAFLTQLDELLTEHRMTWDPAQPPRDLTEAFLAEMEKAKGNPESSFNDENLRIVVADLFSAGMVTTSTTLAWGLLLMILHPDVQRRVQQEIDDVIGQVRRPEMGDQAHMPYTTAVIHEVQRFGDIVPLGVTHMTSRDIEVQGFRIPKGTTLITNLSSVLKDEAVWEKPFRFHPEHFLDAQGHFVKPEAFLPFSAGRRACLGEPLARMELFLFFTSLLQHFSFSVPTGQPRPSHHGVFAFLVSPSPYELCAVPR

[14] = AUC in Sprague-Dawley rat plasma at 2 mg/kg, iv after 8 hrs; format: ADME, organism-based; design: time < 8 hr, dose 2 mg/kg, route intravenous
[15] = molecular target: Cytochrome P450 2C9 (Homo sapiens, UniProt P11712); test: Inhibition of CYP2C9; format: ADME
Sequence of Cytochrome P450 2C9 (P11712 whole entry): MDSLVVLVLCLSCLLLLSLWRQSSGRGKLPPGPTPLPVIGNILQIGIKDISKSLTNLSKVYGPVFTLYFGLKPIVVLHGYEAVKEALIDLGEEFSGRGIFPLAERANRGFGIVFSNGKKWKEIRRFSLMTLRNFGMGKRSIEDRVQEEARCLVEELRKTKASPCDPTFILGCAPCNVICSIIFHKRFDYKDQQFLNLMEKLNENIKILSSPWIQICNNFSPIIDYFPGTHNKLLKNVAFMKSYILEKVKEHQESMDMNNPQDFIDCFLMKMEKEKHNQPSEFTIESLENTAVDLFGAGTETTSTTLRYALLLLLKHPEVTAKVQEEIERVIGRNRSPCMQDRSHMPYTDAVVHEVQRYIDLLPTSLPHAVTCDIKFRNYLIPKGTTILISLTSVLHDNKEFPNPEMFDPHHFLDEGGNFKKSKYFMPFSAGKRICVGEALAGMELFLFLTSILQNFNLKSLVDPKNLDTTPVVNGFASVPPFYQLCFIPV

[16] = Clearance in dog at 1 mg/kg, iv; format: ADME, organism-based, Canis lupus familiaris; design: dose 1 mg/kg, route intravenous; details: in vivo
[17] = molecular target: Ephrin type-A receptor 1 (Homo sapiens) (UniProt P21709); test: Inhibition of EPHA1 at 10 uM
Sequence of Ephrin type-A receptor 1 (Homo sapiens) (P21709 whole entry): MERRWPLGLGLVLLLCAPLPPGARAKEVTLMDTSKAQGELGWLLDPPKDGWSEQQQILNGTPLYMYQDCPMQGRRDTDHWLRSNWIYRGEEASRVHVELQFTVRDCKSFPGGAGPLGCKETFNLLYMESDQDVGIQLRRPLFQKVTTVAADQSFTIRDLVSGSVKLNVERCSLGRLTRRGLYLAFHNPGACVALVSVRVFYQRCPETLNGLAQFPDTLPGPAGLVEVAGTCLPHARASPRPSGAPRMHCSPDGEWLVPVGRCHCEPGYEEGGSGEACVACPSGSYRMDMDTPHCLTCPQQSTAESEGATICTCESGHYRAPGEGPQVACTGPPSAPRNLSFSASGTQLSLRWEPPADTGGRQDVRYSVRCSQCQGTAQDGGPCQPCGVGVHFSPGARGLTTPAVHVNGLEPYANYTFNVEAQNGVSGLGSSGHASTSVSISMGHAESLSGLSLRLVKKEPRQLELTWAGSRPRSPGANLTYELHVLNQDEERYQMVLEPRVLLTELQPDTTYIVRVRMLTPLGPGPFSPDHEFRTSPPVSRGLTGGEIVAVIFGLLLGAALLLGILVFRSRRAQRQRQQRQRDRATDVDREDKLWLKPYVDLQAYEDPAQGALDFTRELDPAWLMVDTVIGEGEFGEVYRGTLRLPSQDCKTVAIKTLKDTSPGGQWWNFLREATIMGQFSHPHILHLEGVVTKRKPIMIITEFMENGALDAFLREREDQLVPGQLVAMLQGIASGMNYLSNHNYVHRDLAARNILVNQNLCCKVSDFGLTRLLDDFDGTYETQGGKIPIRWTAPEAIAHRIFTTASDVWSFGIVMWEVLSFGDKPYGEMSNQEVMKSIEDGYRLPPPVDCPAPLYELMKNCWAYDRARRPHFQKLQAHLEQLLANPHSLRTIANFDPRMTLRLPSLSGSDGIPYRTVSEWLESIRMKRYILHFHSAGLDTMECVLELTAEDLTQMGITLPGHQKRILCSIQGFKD

[18] = system: Mus musculus; test: Reduction in TNBS-induced colitis in mouse […] model assessed as decrease of colon length at 10 mg/kg, administered intrarectally 1 day before TNBS challenge twice daily for 4 days; format: functional, organism-based; design: dose 10 mg/kg
[19] = system: Blood; test: Antiinflammatory activity in human whole blood assessed as inhibition of LPS-induced TNFalpha release treated for 45 mins before LPS challenge measured after 6 hrs by ELISA; format: functional, tissue-based; details: Homo sapiens, Blood
[20] = molecular target: Ephrin type-B receptor 1 (Homo sapiens) (UniProt P54762); test: Inhibition of EphB1 at 10 uM
[21] = AUC in Sprague-Dawley rat liver at 2 mg/kg, iv after 8 hrs; format: ADME, organism-based; design: time < 8 hr, dose 2 mg/kg, route intravenous
[22] = AUC in SJL mouse plasma at 8 mg/kg, iv after 8 hrs; format: ADME, organism-based; design: time < 8 hr, dose 8 mg/kg, route intravenous
[23] = AUC in Lewis rat at 10 mg/kg, po; format: ADME, organism-based; design: dose 10 mg/kg, route oral; details: plasma
[24] = molecular target: T1, Protein-tyrosine kinase 6; test: Inhibition of BRK
Target sequence in this assay (Q13882 whole entry): as the sequence (Q13882 whole entry, looked up) above

[25] = Volume of distribution at steady state in mouse at 2 mg/kg, iv; format: ADME, organism-based; design: dose 2 mg/kg, route intravenous; details: in vivo, read-out: Vdss
[26] = AUC in dog at 5 mg/kg, po; format: ADME, organism-based, Canis lupus familiaris; design: dose 5 mg/kg, route oral; details: plasma
[27] = Clearance in mouse at 2 mg/kg, iv; format: ADME, organism-based; design: dose 2 mg/kg, route intravenous; details: in vivo
[28] = Protein binding in mouse serum; format: ADME, cell-free; details: read-out: PB (converted)
[29] = system: Mus musculus; test: Reduction in TNBS-induced colitis in mouse […] model assessed as decrease of colon length at 3 mg/kg, administered intrarectally 1 day before TNBS challenge twice daily for 4 days; format: functional
[30] = system: Blood; test: Antiinflammatory activity in mouse whole blood assessed as inhibition of LPS-induced TNFalpha release treated for 45 mins before LPS challenge measured after 6 hrs by ELISA; format: functional, tissue-based
[31] = molecular target: Cytochrome P450 3A4 (Homo sapiens, UniProt P08684); test: Inhibition of CYP3A4; format: ADME
Sequence of Cytochrome P450 3A4 (P08684 whole entry): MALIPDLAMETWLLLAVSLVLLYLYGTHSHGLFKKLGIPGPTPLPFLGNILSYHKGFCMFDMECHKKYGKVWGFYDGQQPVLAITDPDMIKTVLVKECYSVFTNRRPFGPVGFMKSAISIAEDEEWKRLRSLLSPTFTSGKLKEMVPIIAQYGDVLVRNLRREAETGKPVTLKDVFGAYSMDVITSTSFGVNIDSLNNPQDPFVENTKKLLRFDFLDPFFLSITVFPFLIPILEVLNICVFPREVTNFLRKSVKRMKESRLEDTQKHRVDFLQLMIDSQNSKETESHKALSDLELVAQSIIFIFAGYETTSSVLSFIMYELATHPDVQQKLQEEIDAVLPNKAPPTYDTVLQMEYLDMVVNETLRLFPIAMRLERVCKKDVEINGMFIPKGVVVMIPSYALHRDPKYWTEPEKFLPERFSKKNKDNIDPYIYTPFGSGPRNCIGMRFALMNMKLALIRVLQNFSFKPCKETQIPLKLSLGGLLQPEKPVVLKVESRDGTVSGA

[32] = Lipophilicity, log P of the compound by HPLC analysis; format: physicochemical
[33] = Volume of distribution at steady state in dog at 1 mg/kg, iv; format: ADME, organism-based, Canis lupus familiaris; design: dose 1 mg/kg, route intravenous; details: in vivo, read-out: Vdss
[34] = Dissociation constant, pKa of the compound; format: physicochemical
[35] = system: Mus musculus; test: Reduction in TNBS-induced colitis in intrarectally dosed mouse […] model assessed as decrease of body weight loss administered 1 day before TNBS challenge twice daily for 4 days; format: functional, organism-based
[36] = molecular target: Inhibitor of nuclear factor kappa-B kinase subunit beta (Homo sapiens) (UniProt O14920); test: Inhibition of human IKK2 at 10 uM
[37] = molecular target: T2, Vascular endothelial growth factor receptor 2 (Homo sapiens, UniProt P35968); details: 10 uM
T2 sequence (P35968 whole entry): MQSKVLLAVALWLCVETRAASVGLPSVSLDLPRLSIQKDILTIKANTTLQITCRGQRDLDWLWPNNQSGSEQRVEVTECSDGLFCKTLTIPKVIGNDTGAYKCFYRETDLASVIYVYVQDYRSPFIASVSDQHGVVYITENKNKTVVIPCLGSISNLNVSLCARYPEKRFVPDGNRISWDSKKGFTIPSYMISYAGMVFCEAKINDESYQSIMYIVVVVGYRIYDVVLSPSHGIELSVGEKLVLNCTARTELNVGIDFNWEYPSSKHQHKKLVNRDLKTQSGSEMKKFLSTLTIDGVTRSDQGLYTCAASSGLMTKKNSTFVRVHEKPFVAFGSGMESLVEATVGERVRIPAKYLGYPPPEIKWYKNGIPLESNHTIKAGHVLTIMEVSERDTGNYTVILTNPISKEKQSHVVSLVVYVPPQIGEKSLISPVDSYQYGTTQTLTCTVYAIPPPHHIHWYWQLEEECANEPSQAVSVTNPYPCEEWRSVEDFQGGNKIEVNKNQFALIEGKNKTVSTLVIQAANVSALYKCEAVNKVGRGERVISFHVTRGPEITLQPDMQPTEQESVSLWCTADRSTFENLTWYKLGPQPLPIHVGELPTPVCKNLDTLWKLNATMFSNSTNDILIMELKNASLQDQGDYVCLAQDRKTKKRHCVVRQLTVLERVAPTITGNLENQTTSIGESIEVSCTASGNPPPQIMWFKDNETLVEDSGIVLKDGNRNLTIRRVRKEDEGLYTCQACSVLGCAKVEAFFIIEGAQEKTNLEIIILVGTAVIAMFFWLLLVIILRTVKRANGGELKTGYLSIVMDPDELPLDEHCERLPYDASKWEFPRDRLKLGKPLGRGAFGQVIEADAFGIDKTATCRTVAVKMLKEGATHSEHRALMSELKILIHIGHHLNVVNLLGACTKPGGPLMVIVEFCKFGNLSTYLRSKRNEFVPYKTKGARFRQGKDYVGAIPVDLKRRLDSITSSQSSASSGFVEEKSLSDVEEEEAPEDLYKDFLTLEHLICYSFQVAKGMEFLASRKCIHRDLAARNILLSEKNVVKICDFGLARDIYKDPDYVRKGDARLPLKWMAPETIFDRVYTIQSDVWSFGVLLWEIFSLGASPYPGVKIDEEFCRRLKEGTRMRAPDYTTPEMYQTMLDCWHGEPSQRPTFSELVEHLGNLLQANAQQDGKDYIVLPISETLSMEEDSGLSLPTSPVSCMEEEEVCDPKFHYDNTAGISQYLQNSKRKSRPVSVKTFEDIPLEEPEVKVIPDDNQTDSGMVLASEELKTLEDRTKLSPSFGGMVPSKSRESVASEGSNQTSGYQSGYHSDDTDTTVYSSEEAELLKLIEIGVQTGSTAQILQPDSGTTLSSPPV
Description: Inhibition of KDR at 10 uM

[38] = Clearance in Lewis rat at 2 mg/kg, iv; format: ADME, organism-based; design: dose 2 mg/kg, route intravenous; details: in vivo
[39] = molecular target: Ephrin type-B receptor 1 (Homo sapiens, UniProt P54762); test: Inhibition of EphB1
[40] = system: Salmonella typhimurium; test: Induction of mutagenicity in Salmonella Typhimurium by Ames test; format: toxicity, organism-based; details: salmonella enterica subsp. enterica serovar typhimurium
[41] = Cmax in Lewis rat at 10 mg/kg, po; format: ADME, organism-based; design: dose 10 mg/kg, route oral; details: in vivo
[42] = system: Mus musculus; test: Reduction in TNBS-induced colitis in mouse […] model assessed as decrease in tissue damage at 10 mg/kg administered intrarectally 1 day before TNBS challenge twice daily for 4 days by hematoxylin-eosin staining relative to control; format: functional, organism-based; design: dose 10 mg/kg
[43] = AUC in SJL mouse liver at 8 mg/kg, iv after 8 hrs; format: ADME, organism-based; design: time < 8 hr, dose 8 mg/kg, route intravenous
[44] = system: Mus musculus; test: Reduction in TNBS-induced colitis in intrarectally dosed mouse […] model assessed as decrease of colon length administered 1 day before TNBS challenge twice daily for 4 days; format: functional, organism-based
[45] = system: Mus musculus; test: Reduction in TNBS-induced colitis in mouse […] model assessed as decrease in inflammation histological score at 10 mg/kg administered intrarectally 1 day before TNBS challenge twice daily for 4 days by hematoxylin-eosin staining relative to control; format: functional, organism-based; design: dose 10 mg/kg
[46] = molecular target: Ephrin type-A receptor 1 (Homo sapiens, UniProt P21709); test: Inhibition of EPHA1
Sequence of Ephrin type-A receptor 1 (P21709 whole entry): as the sequence (P21709 whole entry) above

[47] = system: Blood; test: Antiinflammatory activity in rat whole blood assessed as inhibition of LPS-induced TNFalpha release treated for 45 mins before LPS challenge measured after 6 hrs by ELISA; format: functional, tissue-based
[48] = molecular target: T2, Vascular endothelial growth factor receptor 2; test: Inhibition of KDR
[49] = Cmax in dog at 5 mg/kg, po; format: ADME, organism-based, Canis lupus familiaris; design: dose 5 mg/kg, route oral; details: in vivo

bioavailability [1]: 79%
IC50 [2]: 4.96 µM
IC50 [3]: > 40 µM
half-life [4]: 3.7 h
inhibition [5]: > 75%
AUC at 8 h [6]: 1170 µM·h
AUC at 8 h [8]: 156 µM·h
inhibition [9]: > 75%
Vd [10]: 0.5 L/kg
bioavailability [11]: 72%
half-life [12]: 0.66 h
IC50 [13]: > 40 µM
AUC at 8 h [14]: 13 µM·h
IC50 [15]: 25 µM
clearance [16]: 3.1 mL/min/kg
inhibition [17]: > 75%
IC50 [19]: 1 µM
inhibition [20]: > 75%
AUC at 8 h [21]: 16 µM·h
AUC at 8 h [22]: 18 µM·h
AUC [23]: 89 µM·h
IC50 [24]: 0.31 µM
Vd [25]: 1.8 L/kg
AUC [26]: 50 µM·h
clearance [27]: 52 mL/min/kg
fraction unbound [28]: 0.084
IC50 [30]: 1.2 µM
IC50 [31]: > 40 µM
logP [32]: 2
Vd [33]: 0.6 L/kg
pKa [34]: 2.5
inhibition [36]: > 75%
inhibition [37]: > 75%
clearance [38]: 4.5 mL/min/kg
IC50 [39]: 1.11 µM
Cmax [41]: 17.6 µM
AUC at 8 h [43]: 81 µM·h
IC50 [46]: 0.686 µM
IC50 [47]: 1.7 µM
IC50 [48]: 1.49 µM
Cmax [49]: 10.3 µM
Structure (SMILES): CNc1nc2[nH]c(-c3cccc(CNC(=O)COC)n3)cc2c2c1ncn2C
Activity [7]: Active
Activity [18]: Active
Activity [29]: 1 cm
Activity [35]: Dose-dependent effect
Activity [40]: Non-toxic
Activity [42]: Active
Activity [44]: Dose-dependent effect
Activity [45]: Active
